Values after ≈ are worked out from the molar mass of the structure shown.
Tests used:
[1] = tested on: Streptococcus Group D 2041; assay: In vitro antibacterial activity, agar-dilution MIC; assay type: cell-based
Method: (§1) The formula 1 compounds have in vitro and in vivo activity against Gram-positive pathogenic bacteria. The MIC's were determined by standard agar-dilution assays.

[2] = tested on: Klebsiella pneumoniae X26; assay: In vitro antibacterial activity, agar-dilution MIC; assay type: cell-based; conditions: highest level tested 128 mcg/mL
Method: as §1

[3] = tested on: Staphylococcus epidermidis 222; assay: In vitro antibacterial activity, agar-dilution MIC; assay type: cell-based
Method: as §1

[4] = tested on: Streptococcus pyogenes C203; assay: In vitro antibacterial activity, agar-dilution MIC; assay type: cell-based
Method: as §1

[5] = tested on: Staphylococcus aureus X400; assay: In vitro antibacterial activity, agar-dilution MIC; assay type: cell-based; conditions: Staphylococcus aureus X400, methicillin-resistant strain
Method: as §1

[6] = tested on: Haemophilus influenzae 76; assay: In vitro antibacterial activity, agar-dilution MIC; assay type: cell-based; conditions: Haemophilus influenzae 76, ampicillin-resistant strain, highest level tested 128 mcg/mL
Method: as §1

[7] = tested on: Escherichia coli EC14; assay: In vitro antibacterial activity, agar-dilution MIC; assay type: cell-based; conditions: highest level tested 128 mcg/mL
Method: as §1

[8] = tested on: Haemophilus influenzae C.L.; assay: In vitro antibacterial activity, agar-dilution MIC; assay type: cell-based; conditions: ampicillin-sensitive strain, highest level tested 128 mcg/mL
Method: as §1

[9] = tested on: Staphylococcus aureus X1.1; assay: In vitro antibacterial activity, agar-dilution MIC; assay type: cell-based
Method: as §1

[10] = tested on: Staphylococcus aureus V41; assay: In vitro antibacterial activity, agar-dilution MIC; assay type: cell-based; conditions: Staphylococcus aureus V41, penicillin-resistant strain
Method: as §1

[11] = tested on: Streptococcus Group D X66; assay: In vitro antibacterial activity, agar-dilution MIC; assay type: cell-based
Method: as §1

[12] = tested on: Staphylococcus epidermidis 270; assay: In vitro antibacterial activity, agar-dilution MIC; assay type: cell-based
[13] = tested on: Staphylococcus aureus; assay: In vivo activity against experimentally-induced infection in mice (ED50); conditions: mice infected with Staphylococcus aureus; subcutaneous doses 1 and 4 hours postinfection
Method: (§2) The formula 1 compounds have also shown in vivo antimicrobial activity against experimentally-induced infections in laboratory animals. When two doses of test compound were administered to mice experimentally infected with the test organism, the activity observed was measured as an ED50 value [effective dose in mg/kg to protect 50% of the test animals: see Warren Wick, et al., J. Bacteriol. 81, 233-235 (1961)]. ED50 values observed for illustrative compounds are given in Table III. | ^a mg/kg × 2; doses administered subcutaneously to mice 1 and 4 | hours postinfection

[14] = tested on: Streptococcus pneumoniae; assay: as above; conditions: mice infected with Streptococcus pneumoniae; subcutaneous doses 1 and 4 hours postinfection
Method: as §2

[15] = tested on: Streptococcus pyogenes; assay: as above; conditions: mice infected with Streptococcus pyogenes; subcutaneous doses 1 and 4 hours postinfection
Method: as §2

[16] = tested on: Staphylococcus aureus S13E; assay type: cell-based; conditions: agar dilution
Method: as §1

[17] = tested on: Streptococcus pneumoniae Park I; assay type: cell-based; conditions: agar dilution
Method: as §1

Compound	MIC [1]	MIC [2]	MIC [3]	MIC [4]	MIC [5]	MIC [6]	MIC [7]	MIC [8]	MIC [9]	MIC [10]	MIC [11]	MIC [12]	ED50 Value [13]	ED50 Value [14]	ED50 Value [15]	MIC [16]	MIC [17]
CNC(CC(C)C)C(=O)NC1C(=O)NC(CC(N)=O)C(=O)NC2C(=O)NC3C(=O)NC(C(=O)NC(C(=O)O)c4cc(O)cc(O)c4-c4cc3ccc4O)C(OC3CC(C)(N)C(O)C(C)O3)c3ccc(cc3)Oc3cc2cc(c3OC2OC(CO)C(O)C(O)C2O)Oc2ccc(cc2Cl)C1O (stereo not shown) [Compound 2a]	4 µg/mL (≈ 2.83 µM)	-- (Not active at 128 mcg/mL, the highest level tested)	1 µg/mL (≈ 0.707 µM)	0.5 µg/mL (≈ 0.353 µM)	1 µg/mL (≈ 0.707 µM)	-- (Not active at 128 mcg/mL, the highest level tested)	-- (Not active at 128 mcg/mL, the highest level tested)	-- (Not active at 128 mcg/mL, the highest level tested)	0.5 µg/mL (≈ 0.353 µM)	1 µg/mL (≈ 0.707 µM)	1 µg/mL (≈ 0.707 µM)	1 µg/mL (≈ 0.707 µM)	2.97 mg/kg × 2	2.04 mg/kg × 2	3.54 mg/kg × 2	0.5 µg/mL (≈ 0.353 µM)	1 µg/mL (≈ 0.707 µM)
CN[C@H](CC(C)C)C(=O)N[C@H]1C(=O)N[C@@H](CC(N)=O)C(=O)N[C@H]2C(=O)N[C@H]3C(=O)N[C@H](C(=O)N[C@H](C(=O)O)c4cc(O)cc(O)c4-c4cc3ccc4O)[C@H](O[C@H]3C[C@](C)(N)[C@@H](O)[C@H](C)O3)c3ccc(cc3)Oc3cc2cc(c3O)Oc2ccc(cc2Cl)[C@H]1O [Compound 2b]	4 µg/mL (≈ 3.19 µM)	-- (Not active at 128 mcg/mL, the highest level tested)	2 µg/mL (≈ 1.6 µM)	1 µg/mL (≈ 0.798 µM)	1 µg/mL (≈ 0.798 µM)	-- (Not active at 128 mcg/mL, the highest level tested)	-- (Not active at 128 mcg/mL, the highest level tested)	-- (Not active at 128 mcg/mL, the highest level tested)	1 µg/mL (≈ 0.798 µM)	1 µg/mL (≈ 0.798 µM)	1 µg/mL (≈ 0.798 µM)	2 µg/mL (≈ 1.6 µM)	3.06 mg/kg × 2	3.74 mg/kg × 2	3.54 mg/kg × 2	1 µg/mL (≈ 0.798 µM)	1 µg/mL (≈ 0.798 µM)
CN[C@H](CC(C)C)C(=O)N[C@H]1C(=O)N[C@@H](CC(N)=O)C(=O)N[C@H]2C(=O)N[C@H]3C(=O)N[C@H](C(=O)N[C@H](C(=O)O)c4cc(O)cc(O)c4-c4cc3ccc4O)[C@H](O)c3ccc(cc3)Oc3cc2cc(c3O)Oc2ccc(cc2Cl)[C@H]1O [Compound 2c]	16 µg/mL (≈ 14.4 µM)	-- (Not active at 128 mcg/mL, the highest level tested)	8 µg/mL (≈ 7.21 µM)	4 µg/mL (≈ 3.61 µM)	8 µg/mL (≈ 7.21 µM)	-- (Not active at 128 mcg/mL, the highest level tested)	-- (Not active at 128 mcg/mL, the highest level tested)	-- (Not active at 128 mcg/mL, the highest level tested)	4 µg/mL (≈ 3.61 µM)	4 µg/mL (≈ 3.61 µM)	8 µg/mL (≈ 7.21 µM)	4 µg/mL (≈ 3.61 µM)				4 µg/mL (≈ 3.61 µM)	4 µg/mL (≈ 3.61 µM)
CN[C@H](CC(C)C)C(=O)N[C@H]1C(=O)N[C@@H](CC(N)=O)C(=O)N[C@H]2C(=O)N[C@H]3C(=O)N[C@H](C(=O)N[C@H](C(=O)O)c4cc(O)cc(O)c4-c4cc3ccc4O)[C@H](O[C@H]3C[C@](C)(N)[C@@H](O)[C@H](C)O3)c3ccc(c(Cl)c3)Oc3cc2cc(c3O[C@@H]2O[C@H](CO)[C@@H](O)[C@H](O)[C@H]2O)Oc2ccc(cc2Cl)[C@H]1O [Compound 3a]	1 µg/mL (≈ 0.69 µM)	-- (Not active at 128 mcg/mL, the highest level tested)	0.5 µg/mL (≈ 0.345 µM)	0.25 µg/mL (≈ 0.173 µM)	0.5 µg/mL (≈ 0.345 µM)	-- (Not active at 128 mcg/mL, the highest level tested)	-- (Not active at 128 mcg/mL, the highest level tested)	64 µg/mL (≈ 44.2 µM)	0.25 µg/mL (≈ 0.173 µM)	0.25 µg/mL (≈ 0.173 µM)	0.5 µg/mL (≈ 0.345 µM)	1 µg/mL (≈ 0.69 µM)	0.54 mg/kg × 2	0.34 mg/kg × 2	0.70 mg/kg × 2	0.25 µg/mL (≈ 0.173 µM)	0.25 µg/mL (≈ 0.173 µM)
CN[C@H](CC(C)C)C(=O)N[C@H]1C(=O)N[C@@H](CC(N)=O)C(=O)N[C@H]2C(=O)N[C@H]3C(=O)N[C@H](C(=O)N[C@H](C(=O)O)c4cc(O)cc(O)c4-c4cc3ccc4O)[C@H](O[C@H]3C[C@](C)(N)[C@@H](O)[C@H](C)O3)c3ccc(c(Cl)c3)Oc3cc2cc(c3O)Oc2ccc(cc2Cl)[C@H]1O [Compound 3b]	1 µg/mL (≈ 0.777 µM)	-- (Not active at 128 mcg/mL, the highest level tested)	0.25 µg/mL (≈ 0.194 µM)	0.25 µg/mL (≈ 0.194 µM)	0.5 µg/mL (≈ 0.388 µM)	64 µg/mL (≈ 49.7 µM)	-- (Not active at 128 mcg/mL, the highest level tested)	32 µg/mL (≈ 24.9 µM)	0.125 µg/mL (≈ 0.0971 µM)	0.25 µg/mL (≈ 0.194 µM)	0.5 µg/mL (≈ 0.388 µM)	0.5 µg/mL (≈ 0.388 µM)	0.50 mg/kg × 2	0.30 mg/kg × 2	0.40 mg/kg × 2	0.125 µg/mL (≈ 0.0971 µM)	0.25 µg/mL (≈ 0.194 µM)

Reference: US6111067A, “A-82846-type glycopeptide antibiotics” (Eli Lilly and Company, priority 1993, dated 2000)
